# Experimental data reported in patent US10266564B2, “Cationic lipid cordiarimide hybrid compounds and a process for preparation thereof” (COUNCIL OF SCIENTIFIC & INDUSTRIAL RESEARCH, priority 2014, dated 2019).
# Tests used:
# [1] = test system: HepG2 cells; assay: Apoptosis, annexin V/PI staining by flow cytometry; assay type: cell-based, human; conditions: HepG2, 24 h
# Procedure: Quantitation of apoptotic cells by annexin V staining was carried out according to the manufacturer's instructions. Briefly, cells (5×10^5 cells/well) were seeded in 6 well plates and treated with 5 μM of 8h-8k for 24 h. After incubation, cells were washed with PBS and stained with 1.25 μL of annexin V-FITC and 10 μL of media binding reagent and incubated for 20 min. After that 10 μL of PI was added and samples were analyzed using a flow cytometer. Annexin V-FITC was analyzed using excitation and emission settings of 488 nm and 535 nm (FL-1 channel); PI, 488 nm and 610 nm (FL-2 channel). Debris and clumps were gated out using forward and orthogonal light scatter. Each experiment was repeated two times independently. Results are illustrated in FIG. 1 and the percentage of Annexin-V/PI positive cells increased gradually from 20 to 70% after 24 h of treatment (FIG. 1).
# [2] = biological target: ligase IV (Homo sapiens, UniProt P49917); assay: Ligation assay, DNA ligase IV; assay type: biochemical
# ligase IV, sequence (P49917 whole entry): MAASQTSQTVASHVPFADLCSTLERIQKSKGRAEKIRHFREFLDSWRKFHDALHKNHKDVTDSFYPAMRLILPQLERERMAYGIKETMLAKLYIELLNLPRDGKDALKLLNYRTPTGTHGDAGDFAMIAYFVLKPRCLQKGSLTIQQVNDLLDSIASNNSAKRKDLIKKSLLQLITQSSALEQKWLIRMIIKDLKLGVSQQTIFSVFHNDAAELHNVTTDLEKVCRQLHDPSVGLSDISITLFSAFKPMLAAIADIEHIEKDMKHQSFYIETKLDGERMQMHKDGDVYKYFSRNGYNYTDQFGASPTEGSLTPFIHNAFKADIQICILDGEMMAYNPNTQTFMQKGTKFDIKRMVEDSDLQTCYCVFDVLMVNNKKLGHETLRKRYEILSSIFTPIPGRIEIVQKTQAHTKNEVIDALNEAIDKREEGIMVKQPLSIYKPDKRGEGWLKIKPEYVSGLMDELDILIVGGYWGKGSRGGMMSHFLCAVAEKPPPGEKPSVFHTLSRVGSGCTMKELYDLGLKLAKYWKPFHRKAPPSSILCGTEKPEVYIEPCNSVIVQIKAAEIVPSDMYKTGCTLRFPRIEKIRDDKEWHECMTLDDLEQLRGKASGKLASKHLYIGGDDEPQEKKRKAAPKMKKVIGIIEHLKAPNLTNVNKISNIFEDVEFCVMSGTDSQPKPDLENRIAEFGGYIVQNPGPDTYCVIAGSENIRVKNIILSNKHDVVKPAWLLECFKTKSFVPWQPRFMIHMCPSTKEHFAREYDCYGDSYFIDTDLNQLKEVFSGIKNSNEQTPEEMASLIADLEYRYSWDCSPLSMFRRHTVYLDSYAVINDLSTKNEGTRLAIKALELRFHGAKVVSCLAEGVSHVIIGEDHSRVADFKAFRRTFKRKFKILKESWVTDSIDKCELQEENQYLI
# ligase IV, sequence (Q13426 whole entry partner): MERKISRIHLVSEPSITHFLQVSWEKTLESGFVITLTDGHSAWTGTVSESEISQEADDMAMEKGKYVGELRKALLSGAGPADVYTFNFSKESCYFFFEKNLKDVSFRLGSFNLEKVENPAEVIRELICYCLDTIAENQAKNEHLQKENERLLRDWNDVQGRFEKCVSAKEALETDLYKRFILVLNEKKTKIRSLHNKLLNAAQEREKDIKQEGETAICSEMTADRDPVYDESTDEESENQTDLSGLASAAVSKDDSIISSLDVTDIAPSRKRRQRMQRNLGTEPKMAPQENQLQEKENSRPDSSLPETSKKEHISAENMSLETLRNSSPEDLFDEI
# From the text: (§1) The ligation assay was done strictly following the assay protocol described in Xi Chen et. al, Cancer Res 2008; 68(9):3169-3177. The DNA molecules 52 mer (5′-3′), 28-mer (5′-3′) and 34-mer (5′-3′) were used to construct a double stranded nicked substrate for the ligase enzyme (FIG. 4). The 34-mer oligo was labelled with 32P-AMP to form a substrate for ligase and to form a ligase-AMP intermediate. During ligation, the ligase would transfer the AMP to the nick forming a phosphodiester bond and seal the nick. The ligated DNA molecule would be larger in size and run higher up on a 7% Urea-containing denaturing acrylamide gel. If an inhibitor is added to the reaction mixture prior to the addition of ligase, this would lead to an inhibition of ligation and a corresponding loss of labelled ligated product in the gel. We would then be able to calculate the percentage of inhibition of ligation by estimating the amount of ligated product in the lane with no inhibitor and comparing it with the lanes containing different inhibitor molecules or with the same inhibitor molecule at different concentrations.
# [3] = biological target: T1, T4 DNA ligase (Enterobacteria phage T4, UniProt P00970); assay: Ligation assay, T4 DNA ligase control; assay type: biochemical; conditions: 5 μM
# T1 sequence (P00970 1-487): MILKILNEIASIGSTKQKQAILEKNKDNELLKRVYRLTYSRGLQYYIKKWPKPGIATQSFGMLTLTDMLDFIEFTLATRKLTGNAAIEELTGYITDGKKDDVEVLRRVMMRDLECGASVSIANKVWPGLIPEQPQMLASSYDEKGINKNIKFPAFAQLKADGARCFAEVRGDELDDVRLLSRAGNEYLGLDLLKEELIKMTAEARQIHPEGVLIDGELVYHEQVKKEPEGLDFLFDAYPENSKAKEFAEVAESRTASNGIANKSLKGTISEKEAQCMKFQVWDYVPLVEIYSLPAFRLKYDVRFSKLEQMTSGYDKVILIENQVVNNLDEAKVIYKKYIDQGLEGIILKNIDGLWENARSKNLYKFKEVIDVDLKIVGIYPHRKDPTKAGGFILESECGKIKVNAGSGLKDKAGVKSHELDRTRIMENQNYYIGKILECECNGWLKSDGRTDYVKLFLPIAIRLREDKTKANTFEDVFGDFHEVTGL
# From the text: as §1
smiles,measurement,setting,value
"CCCCCCCCCCCC[N+](C)(CCCCCCCCCCCC)CC(=O)NC1CCC(=O)N(CC(=O)c2ccccc2)C1=O (stereo not shown) [Compound 8k, {[2,6-Dioxo-1-(2-oxo-2-phenyl-ethyl)-piperidin-3-ylcarbamoyl]-methyl}-Didodecyl-methyl-ammonium iodide]",apoptosis induction (in words),[1],induced significant amount of apoptosis
same,inhibition of ligase IV,[2]; 5 μM,No appreciable inhibition
same,effect on ligase IV activity,[2]; even at higher concentrations,no effect
same,inhibition of T4 ligase,[3],No appreciable inhibition
